{"source": "ChEMBL document CHEMBL5523667", "about": "“Blood-stage antimalarial activity, favourable metabolic stability and in vivo toxicity of novel piperazine linked 7-chloroquinoline-triazole conjugates” (Eur J Med Chem, 2024)", "key": {"[1]": {"experiment": "Toxicity in mouse assessed as latency time to the central area at 100 mg/kg by open field test (reference value: 106.48 +/- 43.19 sec)", "assay_type": "organism-based", "settings": "in vivo, 43 s"}, "[2]": {"experiment": "Toxicity in mouse assessed as grooming time at 100 mg/kg by open field test (reference value: 10.91 +/- 2.01 sec)", "assay_type": "organism-based", "settings": "in vivo, 2 s"}, "[3]": {"test_system": "Plasmodium berghei", "experiment": "(§1) Antimalarial activity against Plasmodium berghei ANKA infected in BALB/c mouse assessed as clearance of gametocytes at 50 to 100 mg/kg, ip p preadministered with phenylhydrazine for 3 days followed by compound administration and measured after 5 days by Giemsa staining based light microscopic analysis relative to control", "assay_type": "functional, organism-based", "settings": "dose 50-100 mg/kg, time 5.0 day"}, "[4]": {"test_system": "Plasmodium falciparum", "experiment": "Antimalarial activity against ring stage chloroquine-resistant Plasmodium falciparum RKL9 assessed as inhibition of parasite growth by SYBR green I dye based assay", "assay_type": "functional, organism-based"}, "[5]": {"target": "T1, Falcipain-3 (Plasmodium falciparum 3D7, UniProt Q8IIL0)", "T1 sequence (Q8IIL0 whole entry)": "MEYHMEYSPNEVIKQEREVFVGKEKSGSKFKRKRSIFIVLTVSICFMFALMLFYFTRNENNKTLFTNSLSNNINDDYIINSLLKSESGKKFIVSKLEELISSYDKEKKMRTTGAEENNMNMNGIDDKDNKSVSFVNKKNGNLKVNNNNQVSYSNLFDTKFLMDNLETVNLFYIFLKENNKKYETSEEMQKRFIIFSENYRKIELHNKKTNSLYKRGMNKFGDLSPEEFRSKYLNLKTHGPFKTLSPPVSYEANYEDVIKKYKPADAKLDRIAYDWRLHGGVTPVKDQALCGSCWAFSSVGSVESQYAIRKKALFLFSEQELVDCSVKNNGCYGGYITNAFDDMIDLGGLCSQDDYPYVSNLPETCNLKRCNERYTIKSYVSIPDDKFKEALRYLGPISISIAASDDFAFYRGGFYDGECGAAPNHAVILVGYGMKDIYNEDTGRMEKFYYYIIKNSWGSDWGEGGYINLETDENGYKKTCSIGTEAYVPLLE", "experiment": "Inhibition of N-terminal 6His-tagged recombinant Plasmodium falciparum FP3 expressed in Escherichia coli M15 using Z-Phe-Arg-AMC as substrate measured after 30 mins by microplate reader analysis"}, "[6]": {"test_system": "Plasmodium berghei", "experiment": "as §1, with “as reduction in gametocyte development” for “as clearance of gametocytes”, “ip” for “ip p”, “after 4” for “after 5”, “analysis” for “analysis relative to control”", "assay_type": "functional, organism-based", "settings": "dose 50-100 mg/kg, time 4.0 day"}, "[7]": {"experiment": "Toxicity in mouse assessed as latency to fall off the rotating rod by measuring neuromuscular coordination index at 100 mg/kg by rotarod apparatus (reference value: 12.45 +/- 1.48 )", "assay_type": "organism-based", "settings": "in vivo"}, "[8]": {"target": "T2, Falcipain-3 (Plasmodium falciparum 3D7) (UniProt Q8IIL0)", "T2 sequence (whole entry)": "T1 sequence (Q8IIL0 whole entry)", "experiment": "Inhibition of N-terminal 6His-tagged recombinant Plasmodium falciparum FP3 expressed in Escherichia coli M15 using Z-Phe-Arg-AMC as substrate at 10 uM measured after 30 mins by microplate reader analysis relative to control"}, "[9]": {"test_system": "Plasmodium berghei", "experiment": "Antimalarial activity against Plasmodium berghei ANKA infected in female BALB/c mouse assessed as reduction in parasitemia at 50 to 100 mg/kg, ip administered daily for 7 days by Giemsa staining based light microscopy", "assay_type": "functional, organism-based", "settings": "dose 50-100 mg/kg, time 7.0 day"}, "[10]": {"test_system": "Plasmodium falciparum", "experiment": "Antimalarial activity against synchronized ring stage Plasmodium falciparum assessed as reduction in hemozoin level at 1 to 4 uM incubated for 20 hrs by absorbance based analysis", "assay_type": "functional, organism-based", "settings": "dose 1-4 µM"}, "[11]": {"target": "T2, Falcipain-3 (Plasmodium falciparum 3D7)", "experiment": "Binding affinity to N-terminal 6His-tagged recombinant Plasmodium falciparum FP3 expressed in Escherichia coli M15 assessed as dissociation rate constant (Koff) by surface plasmon resonance analysis"}, "[12]": {"experiment": "Toxicity in mouse assessed as impairment of short-term memory at 100 mg/kg by novel object recognition test (reference value: 11.87 +/- 3.82 )", "assay_type": "organism-based", "settings": "in vivo"}, "[13]": {"test_system": "Plasmodium berghei", "experiment": "Antimalarial activity against Plasmodium berghei ANKA infected in BALB/c mouse assessed as increase in survival at 50 to 100 mg/kg, ip p preadministered with phenylhydrazine for 3 days followed by compound administration and measured after 5 days", "assay_type": "functional, organism-based", "settings": "dose 50-100 mg/kg, time 5.0 day"}, "[14]": {"experiment": "Stability of the compound in simulated gastric fluid at pH 1.2 at 1 uM measured after 120 mins by LC-MS/MS analysis", "assay_type": "ADME", "settings": "simulated gi fluid, pH 1.2, 2 h"}, "[15]": {"test_system": "Plasmodium berghei", "experiment": "Antimalarial activity against Plasmodium berghei ANKA infected in female BALB/c mouse assessed as reduction in parasitemia at 100 mg/kg, ip measured on day 4 post infection by Giemsa staining based light microscopy (Rvb >17 %)", "assay_type": "functional", "parameters": "scale not given: the % may be the effect or the level left"}, "[16]": {"target": "T3, Falcipain 2 (Plasmodium falciparum, UniProt Q9N6S8)", "T3 sequence (Q9N6S8 whole entry)": "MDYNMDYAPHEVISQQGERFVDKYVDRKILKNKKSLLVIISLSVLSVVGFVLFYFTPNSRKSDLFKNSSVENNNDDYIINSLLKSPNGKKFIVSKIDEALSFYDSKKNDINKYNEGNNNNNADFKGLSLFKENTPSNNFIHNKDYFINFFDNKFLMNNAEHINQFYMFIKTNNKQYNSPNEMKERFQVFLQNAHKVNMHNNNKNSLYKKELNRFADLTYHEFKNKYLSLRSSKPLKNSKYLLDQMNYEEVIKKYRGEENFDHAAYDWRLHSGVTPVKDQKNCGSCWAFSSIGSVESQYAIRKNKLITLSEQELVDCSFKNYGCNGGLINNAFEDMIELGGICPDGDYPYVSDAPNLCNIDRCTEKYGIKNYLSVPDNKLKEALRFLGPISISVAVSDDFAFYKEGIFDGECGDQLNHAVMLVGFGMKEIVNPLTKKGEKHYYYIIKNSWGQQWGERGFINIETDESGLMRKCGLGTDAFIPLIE", "experiment": "Binding affinity to N-terminal 6His-tagged recombinant Plasmodium falciparum FP2 expressed in Escherichia coli M15 assessed as dissociation constant incubated for 15 mins in presence of lysine reactive dye by microscale thermophoretic analysis"}, "[17]": {"target": "T3, Falcipain 2", "experiment": "Inhibition of N-terminal 6His-tagged recombinant Plasmodium falciparum FP2 expressed in Escherichia coli M15 using Z-Phe-Arg-AMC as substrate measured after 30 mins by microplate reader analysis"}, "[18]": {"test_system": "Plasmodium falciparum", "experiment": "Antimalarial activity against synchronized ring stage Plasmodium falciparum assessed as increase in undigested hemoglobin level at 1 to 4 uM incubated for 20 hrs by absorbance based analysis", "assay_type": "functional, organism-based", "settings": "dose 1-4 µM"}, "[19]": {"test_system": "Plasmodium falciparum", "experiment": "Antimalarial activity against ring stage chloroquine-sensitive Plasmodium falciparum 3D7 assessed as growth inhibition incubated for 72 hrs by SYBR Green dye based analysis", "assay_type": "functional, organism-based", "settings": "3D7, 72 h"}, "[20]": {"experiment": "Toxicity in mouse assessed as cell necrosis in spleen at 100 to 200 mg/kg measured after 7 days by hematoxylin and eosin staining based analysis", "assay_type": "organism-based", "settings": "in vivo, 168 h, dose 100-200 mg/kg, time 7 day"}, "[21]": {"test_system": "Plasmodium falciparum", "experiment": "Antimalarial activity against chloroquine-resistant Plasmodium falciparum K1 assessed as inhibition of parasite growth by lactate dehydrogenase assay", "assay_type": "functional, organism-based"}, "[22]": {"experiment": "Toxicity in mouse assessed as effect on exploratory activity at 100 to 200 mg/kg measured over 5 mins by open field arena test", "assay_type": "organism-based", "settings": "in vivo, dose 100-200 mg/kg"}, "[23]": {"target": "T3, Falcipain 2", "experiment": "Binding affinity to N-terminal 6His-tagged recombinant Plasmodium falciparum FP2 expressed in Escherichia coli M15 assessed as dissociation constant by surface plasmon resonance analysis"}}, "note": "Activity calls are given as the source filed them. No cut-off for these calls is given here."}
{"smiles": "O=C(Cn1cc(CN2CCN(c3ccnc4cc(Cl)ccc34)CC2)nn1)Nc1cccc([N+](=O)[O-])c1", "values": [{"measurement": "Time", "setting": "[1]", "result": 56.23, "unit": "s"}, {"measurement": "Time", "setting": "[2]", "result": 12.04, "unit": "s"}, {"measurement": "Activity", "setting": "[3]", "result": "Active"}, {"measurement": "IC50", "setting": "[4]", "result": 1800, "unit": "nM"}, {"measurement": "IC50", "setting": "[5]", "result": 31800, "unit": "nM"}, {"measurement": "Activity", "setting": "[6]", "result": "Active"}, {"measurement": "Activity_index", "setting": "[7]", "result": 11.53}, {"measurement": "inhibition", "setting": "[8]", "result": 28.5, "unit": "%"}, {"measurement": "Activity", "setting": "[9]", "result": "Active"}, {"measurement": "Activity", "setting": "[10]", "result": "Active"}, {"measurement": "K", "setting": "[11]", "result": 0.305, "unit": "s⁻¹"}, {"measurement": "Activity", "setting": "[12]", "result": 3.6}, {"measurement": "Activity", "setting": "[13]", "result": "Active"}, {"measurement": "Stability", "setting": "[14]", "result": "Stable"}, {"measurement": "Activity", "setting": "[15]", "result": 100, "unit": "%"}, {"measurement": "Kd", "setting": "[16]", "result": 2990, "unit": "nM"}, {"measurement": "IC50", "setting": "[17]", "result": 8100, "unit": "nM"}, {"measurement": "Activity", "setting": "[18]", "result": "Active"}, {"measurement": "IC50", "setting": "[19]", "result": 960, "unit": "nM"}, {"measurement": "Activity", "setting": "[20]", "result": "Non-Toxic"}, {"measurement": "IC50", "setting": "[21]", "result": 1890, "unit": "nM"}, {"measurement": "Activity", "setting": "[22]", "result": "Non-Toxic"}, {"measurement": "Kd", "setting": "[23]", "result": 14000, "unit": "nM"}]}
